{"source": "PubChem BioAssay (NCI)", "assay_in_all_cases": "NCI-60 cell line screen, 48 h", "key": {"OVCAR-4 ovarian": {"tested_on": "OVCAR-4 ovarian"}, "UACC-257 melanoma": {"tested_on": "UACC-257 melanoma"}, "ACHN renal": {"tested_on": "ACHN renal"}, "786-0 renal": {"tested_on": "786-0 renal"}, "PC-3 prostate": {"tested_on": "PC-3 prostate"}, "BT-549 breast": {"tested_on": "BT-549 breast"}, "K-562 leukemia": {"tested_on": "K-562 leukemia"}, "SK-MEL-5 melanoma": {"tested_on": "SK-MEL-5 melanoma"}, "CAKI-1 renal": {"tested_on": "CAKI-1 renal"}, "LOX IMVI melanoma": {"tested_on": "LOX IMVI melanoma"}, "NCI-H23 lung": {"tested_on": "NCI-H23 lung"}, "SF-295 CNS": {"tested_on": "SF-295 CNS"}, "IGROV1 ovarian": {"tested_on": "IGROV1 ovarian"}, "OVCAR-3 ovarian": {"tested_on": "OVCAR-3 ovarian"}, "DU-145 prostate": {"tested_on": "DU-145 prostate"}, "HT29 colon": {"tested_on": "HT29 colon"}, "RXF 393 renal": {"tested_on": "RXF 393 renal"}, "SNB-19 CNS": {"tested_on": "SNB-19 CNS"}, "NCI/ADR-RES ovarian": {"tested_on": "NCI/ADR-RES ovarian"}, "SNB-75 CNS": {"tested_on": "SNB-75 CNS"}, "MCF7 breast": {"tested_on": "MCF7 breast"}, "TK-10 renal": {"tested_on": "TK-10 renal"}, "SK-MEL-28 melanoma": {"tested_on": "SK-MEL-28 melanoma"}, "HOP-92 NSCLC": {"tested_on": "HOP-92 NSCLC"}, "HL-60(TB) leukemia": {"tested_on": "HL-60(TB) leukemia"}, "SK-MEL-2 melanoma": {"tested_on": "SK-MEL-2 melanoma"}, "HS 578T breast": {"tested_on": "HS 578T breast"}, "NCI-H226 lung": {"tested_on": "NCI-H226 lung"}, "SN12C renal": {"tested_on": "SN12C renal"}, "NCI-H522 lung": {"tested_on": "NCI-H522 lung"}, "A549 NSCLC": {"tested_on": "A549 NSCLC"}, "OVCAR-5 ovarian": {"tested_on": "OVCAR-5 ovarian"}, "OVCAR-8 ovarian": {"tested_on": "OVCAR-8 ovarian"}, "MDA-MB-435": {"tested_on": "MDA-MB-435"}, "SR leukemia": {"tested_on": "SR leukemia"}, "UO-31 renal": {"tested_on": "UO-31 renal"}, "HCT-15 colon": {"tested_on": "HCT-15 colon"}, "EKVX NSCLC": {"tested_on": "EKVX NSCLC"}, "SF-539 CNS": {"tested_on": "SF-539 CNS"}, "M14 melanoma": {"tested_on": "M14 melanoma"}, "T-47D breast": {"tested_on": "T-47D breast"}, "KM12 colon": {"tested_on": "KM12 colon"}, "UACC-62 melanoma": {"tested_on": "UACC-62 melanoma"}, "HCT-116 colon": {"tested_on": "HCT-116 colon"}, "MOLT-4 leukemia": {"tested_on": "MOLT-4 leukemia"}, "MDA-MB-231 breast": {"tested_on": "MDA-MB-231 breast"}, "SF-268 CNS": {"tested_on": "SF-268 CNS"}, "SW-620 colon": {"tested_on": "SW-620 colon"}, "SK-OV-3 ovarian": {"tested_on": "SK-OV-3 ovarian"}, "HOP-62 NSCLC": {"tested_on": "HOP-62 NSCLC"}, "U251 CNS": {"tested_on": "U251 CNS"}, "NCI-H460 lung": {"tested_on": "NCI-H460 lung"}, "MALME-3M melanoma": {"tested_on": "MALME-3M melanoma"}}, "note": "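Step 1: Grow cells in 96-well plates. Step 2: Expose to compound for 48 hours at 5 concentrations. Step 3: Interpolate endpoints linearly; if unreached, use highest concentration. Definition used: TGI = concentration required for complete inhibition of growth.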", "data": [{"smiles": "COc1ccc2c(c1)n([O-])c1cc(C#N)ccc1[n+]2=O", "values": [{"measurement": "TGI", "setting": "OVCAR-4 ovarian", "result": 91, "unit": "µM"}, {"measurement": "TGI", "setting": "UACC-257 melanoma", "result": 19.4, "unit": "µM"}, {"measurement": "TGI", "setting": "ACHN renal", "result": 12.4, "unit": "µM"}, {"measurement": "TGI", "setting": "786-0 renal", "result": 30.8, "unit": "µM"}, {"measurement": "TGI", "setting": "PC-3 prostate", "result": 21.7, "unit": "µM"}, {"measurement": "TGI", "setting": "BT-549 breast", "result": 51.6, "unit": "µM"}, {"measurement": "TGI", "setting": "K-562 leukemia", "result": 97.4, "unit": "µM"}, {"measurement": "TGI", "setting": "SK-MEL-5 melanoma", "result": 2.6, "unit": "µM"}, {"measurement": "TGI", "setting": "CAKI-1 renal", "result": 14.6, "unit": "µM"}, {"measurement": "TGI", "setting": "LOX IMVI melanoma", "result": 17.6, "unit": "µM"}, {"measurement": "TGI", "setting": "NCI-H23 lung", "result": 4.79, "unit": "µM"}, {"measurement": "TGI", "setting": "SF-295 CNS", "result": 3.77, "unit": "µM"}, {"measurement": "TGI", "setting": "IGROV1 ovarian", "result": 26.8, "unit": "µM"}, {"measurement": "TGI", "setting": "OVCAR-3 ovarian", "result": 26.1, "unit": "µM"}, {"measurement": "TGI", "setting": "DU-145 prostate", "result": 16.6, "unit": "µM"}, {"measurement": "TGI", "setting": "HT29 colon", "result": 10.1, "unit": "µM"}, {"measurement": "TGI", "setting": "RXF 393 renal", "result": "> 100", "unit": "µM"}, {"measurement": "TGI", "setting": "SNB-19 CNS", "result": "> 100", "unit": "µM"}, {"measurement": "TGI", "setting": "NCI/ADR-RES ovarian", "result": 62.9, "unit": "µM"}, {"measurement": "TGI", "setting": "SNB-75 CNS", "result": 20.3, "unit": "µM"}, {"measurement": "TGI", "setting": "MCF7 breast", "result": "> 100", "unit": "µM"}, {"measurement": "TGI", "setting": "TK-10 renal", "result": 10.8, "unit": "µM"}, {"measurement": "TGI", "setting": "SK-MEL-28 melanoma", "result": 40.2, "unit": "µM"}, {"measurement": "TGI", "setting": "HOP-92 NSCLC", "result": 28.6, "unit": "µM"}, {"measurement": "TGI", "setting": "HL-60(TB) leukemia", "result": 71.6, "unit": "µM"}, {"measurement": "TGI", "setting": "SK-MEL-2 melanoma", "result": 19.2, "unit": "µM"}, {"measurement": "TGI", "setting": "HS 578T breast", "result": 18.6, "unit": "µM"}, {"measurement": "TGI", "setting": "NCI-H226 lung", "result": 21.7, "unit": "µM"}, {"measurement": "TGI", "setting": "SN12C renal", "result": 20.6, "unit": "µM"}, {"measurement": "TGI", "setting": "NCI-H522 lung", "result": 27.7, "unit": "µM"}, {"measurement": "TGI", "setting": "A549 NSCLC", "result": 10.9, "unit": "µM"}, {"measurement": "TGI", "setting": "OVCAR-5 ovarian", "result": 35.9, "unit": "µM"}, {"measurement": "TGI", "setting": "OVCAR-8 ovarian", "result": "> 100", "unit": "µM"}, {"measurement": "TGI", "setting": "MDA-MB-435", "result": 6.12, "unit": "µM"}, {"measurement": "TGI", "setting": "SR leukemia", "result": 18.9, "unit": "µM"}, {"measurement": "TGI", "setting": "UO-31 renal", "result": 23.1, "unit": "µM"}, {"measurement": "TGI", "setting": "HCT-15 colon", "result": 4.82, "unit": "µM"}, {"measurement": "TGI", "setting": "EKVX NSCLC", "result": 79.1, "unit": "µM"}, {"measurement": "TGI", "setting": "SF-539 CNS", "result": 16.2, "unit": "µM"}, {"measurement": "TGI", "setting": "M14 melanoma", "result": 1.67, "unit": "µM"}, {"measurement": "TGI", "setting": "T-47D breast", "result": 48.6, "unit": "µM"}, {"measurement": "TGI", "setting": "KM12 colon", "result": 12.5, "unit": "µM"}, {"measurement": "TGI", "setting": "UACC-62 melanoma", "result": 11, "unit": "µM"}, {"measurement": "TGI", "setting": "HCT-116 colon", "result": 24, "unit": "µM"}, {"measurement": "TGI", "setting": "MOLT-4 leukemia", "result": 1.38, "unit": "µM"}, {"measurement": "TGI", "setting": "MDA-MB-231 breast", "result": 59.5, "unit": "µM"}, {"measurement": "TGI", "setting": "SF-268 CNS", "result": 81.3, "unit": "µM"}, {"measurement": "TGI", "setting": "SW-620 colon", "result": 56.3, "unit": "µM"}, {"measurement": "TGI", "setting": "SK-OV-3 ovarian", "result": 43.1, "unit": "µM"}, {"measurement": "TGI", "setting": "HOP-62 NSCLC", "result": 15.6, "unit": "µM"}, {"measurement": "TGI", "setting": "U251 CNS", "result": 16.7, "unit": "µM"}, {"measurement": "TGI", "setting": "NCI-H460 lung", "result": "> 100", "unit": "µM"}, {"measurement": "TGI", "setting": "MALME-3M melanoma", "result": 8.06, "unit": "µM"}]}]}
